In US20050208496A1, “Methods of testing for bronchial asthma or chronic obstructive pulmonary disease” (Genox Research, Inc., priority 2002, published 2005):

Legend:
[1] = test system: mouse OVA antigen-exposed bronchial hypersensitivity model; assay: Quantitative PCR (ABI 7700) of selected genes using cDNA of the mouse OVA antigen-exposed bronchial hypersensitivity model; type: in vivo; conditions: OVA-administered group
Description: Eighty-eight genes, most of which were recognized as genes whose expression levels were altered in human and mouse, were selected from the genes narrowed down in Section 4. A quantitative PCR assay was carried out with ABI 7700 using cDNA from the human goblet cell differentiation model and using cDNA from the mouse OVA antigen-exposed bronchial hypersensitivity model.
The primers and TaqMan probe used in the assay with ABI 7700 were designed based on the information on the sequence of each gene utilizing Primer Express (PE Biosystems). The 5′ and 3′ ends of the TaqMan probe were labeled with FAM (6-carboxy-fluorescein) and TAMRA (6-carboxy-N,N,N′,N′-tetramethylrhodamine), respectively. The nucleotide sequences of oligonucleotides for the forward primer (F), reverse primer (R), and TaqMan probe (TP) for each gene are shown below. […]
Furthermore, similar quantitative analyses for the β-actin gene and the glyceraldehyde-3-phosphate dehydrogenase (GAPDH) gene as internal standards for correction were carried out to correct the difference of cDNA concentration in a sample. The copy number of the gene of interest was determined by correcting based on the determined copy numbers for the genes. […]

[2] = test system: respiratory epithelial cells; assay: Goblet cell differentiation of respiratory epithelial cells upon IL-13 stimulation (PAS and Alcian blue staining); type: cell-based, human
Description: After the cell count was determined, cells were plated at the cell density of 10^6 cells/cm^2 on a filter membrane with 0.45-μm pores, being attached to the bottom of a Millicell-HA Culture Plate Insert (Millipore Corp.). At the time of plating, Vitrogen gel (Vitrogen from Celtrix Pharmaceuticals, Inc. was used after gelation) was placed on the filter membrane as a growth-supporting material, and the epithelial cells were placed thereon. The Millicell inserts were placed in a 24-well plate (Falcon) containing a culture medium, which was a 1:1 mixture of Dulbecco's MEM and Ham F12 containing 2% Ultroser G and the antibiotics, penicillin, streptomycin, gentamycin, and amphotericin B. The cells were incubated overnight. Then, cells that had not adhered to the collagen gel were removed, and the remaining cells were cultured while the cell side was in contact with air (air interface) for approximately two weeks (See FIG. 1). The basic procedures of the AI method by which respiratory epithelial cells were cultured were the same as those described in the following reports:
As basically done in the AI method, Vitrogen gel was placed on a filter membrane, and epithelial cells were placed thereon. The IMM method is different from the AI method in the point that the IMM method comprises adding a medium to cover the epithelial cells. […]

pendrin gene = assay: Quantitative PCR (ABI 7700) of the pendrin gene in epithelial cells cultured by the AI or IMM method; type: cell-based, human; conditions: respiratory tract epithelial cells
Text: Quantitative PCR assays were further performed with ABI 7700 using two batches of epithelial cells cultured respectively by the AI method and the IMM method described in Example 1 to quantitatively determine the expression level of the pendrin gene selected in Example 5. The primers and TaqMan probe used in the assays with ABI 7700 were designed based on the information on the sequence of the pendrin gene utilizing Primer Express (PE Biosystems). The 5′ and 3′ ends of the TaqMan probe were labeled with FAM (6-carboxy-fluorescein) and TAMRA (6-carboxy-N,N,N′,N′-tetramethylrhodamine), respectively. The sequences of oligonucleotides of the forward primer (F), reverse primer (R), and TaqMan probe (TP) for the pendrin gene are shown below. The GenBank accession number corresponding to the nucleotide sequence of each marker gene is shown in parenthesis after the name.
Total RNA extracted by the aforementioned method was treated with DNase (Nippon Gene). […]
Additionally, to correct the differences of cDNA concentration in the sample, a similar quantitative analysis was performed for β-actin gene and glyceraldehyde-3-phosphate dehydrogenase (GAPDH) gene as internal standards for correction. By correcting based on the number of copies of these genes, the number of copies of the genes of interest was calculated. […]

Substance	expression levels of the respective genes (quantitative PCR, corrected with β-actin) [1]	differentiation into goblet cells (PAS and Alcian blue staining) ([2]; AI method, IL-13 50 ng/mL, after 14 days of incubation)	goblet cell differentiation ([2]; IMM method)	pendrin gene expression level, elevation as a result of IL-13 stimulation (quantitative PCR) (pendrin gene)
ovalbumin [OVA antigen, ovalbumin antigen used for sensitization and inhalation to induce bronchial hypersensitivity in mice]	significant variations			
IL-13: human IL-13 (Peprotech, Inc.) added to the medium at 50 ng/mL to stimulate respiratory epithelial cells		differentiated into goblet cells	not observed	hundred folds or more
